Assays:
murine Nurr1 receptor = target: T1, murine Nurr1 receptor (Mus musculus, UniProt Q06219); experiment: In vitro activity on N2A cells (NBRE-luciferase reporter); assay type: cell-based; conditions: N2A-8NBRE-luciferase cells, products incubated 24 hours
T1 construct: endogenously expressing the murine Nurr1 receptor; host or cells: Neuro-2A (N2A) mouse neuroblastoma cells stably transfected with 8NBRE-luciferase
Experimental: Evaluation of the in vitro Activity on N2A Cells
The tests consisted in evaluating the in vitro activity of the compounds of the invention on a cell line (N2A) endogenously expressing the murine Nurr1 receptor and stably transfected with the NOT binding response element (NBRE) coupled to the luciferase reporter gene. The EC50 values are between 0.01 and 1000 nM. The tests were performed according to the procedure described hereinbelow.
The cell line Neuro-2A is obtained from a standard commercial source (ATCC). The clone Neuro-2A was obtained from a spontaneous tumor originating from a strain of albino mice A by R. J Klebe et al. This line Neuro-2A is then stably transfected with 8NBRE-luciferase. The N2A-8NBRE cells are cultured to the point of confluence in 75 cm^2 culture flasks containing DMEM supplemented with 10% fetal calf serum, 4.5 g/L of glucose and 0.4 mg/ml of geneticin. After culturing for one week, the cells are recovered with 0.25% trypsin for 30 seconds and then resuspended in DMEM without phenol red, containing 4.5 g/L of glucose and 10% Hyclone defatted serum, and placed in white, transparent-based 96-well plates. The cells are deposited at a rate of 60 000 per well in 75 μL for 24 hours before adding the products. The products are applied in 25 μL and incubated for a further 24 hours. On the day of measurement, an equivalent volume (100 μL) of Steadylite is added to each well, and the wells are then left for 30 minutes to obtain complete lysis of the cells and maximum production of the signal. The plates are then measured in a microplate luminescence counter, after having been sealed with an adhesive film. The products are prepared in the form of a 10^−2 M stock solution, and then diluted in 100% of DMSO. Each concentration of product is prediluted in culture medium before incubation with the cells thus containing 0.625% final of DMSO.

human NOT receptor = experiment: Binding to the human NOT receptor by SPR (surface plasmon resonance, Biacore S51); conditions: immobilized GST-NOT (NOT-FL) and His-Thr-NOT 329-598, 3.75 to 0.1 μM, 4° C.
Experimental: Evaluation of the Binding to the Human NOT Receptor The direct binding between compounds of the invention and the human NOT receptor was evaluated using the SPR (surface plasmon resonance) technique. In this test, the protein is immobilized covalently on the matrix and the test molecule is injected into the chamber containing the sensor chip. The signal is directly proportional to the amount of product bound to the protein. The binding tests were performed in a Biacore S51 machine (Biacore Inc., Piscataway N.J.). The entire GST-NOT protein (NOT-FL) was supplied by Invitrogen (PV3265). The domain for binding to the NOT ligand (His-Thr-NOT 329-598) was expressed and purified as described in Nature 423, 555-560. The two proteins, diluted to a concentration of 20 μg/ml in pH 5.0 acetate buffer containing 5 mM of DTT, were immobilized on a surface of carboxymethyl 5′ dextran (CM5 sensor chip, Biacore Inc.) via amine coupling according to the protocol recommended by Biacore, eluting with an HBS-N buffer (10 mM HEPES, 0.15 M NaCl, 3 mM EDTA, pH 7.4). Approximately 10 000-15 000 resonance units (RU) of the proteins are captured on the surface of the sensor chip CM5. […] Each concentration of product is injected at 4° C. for 1 minute at 30 μl/min. The dissociation was recorded for 5 minutes without any other surface regeneration procedure. […]

T1 sequence (Q06219 whole entry): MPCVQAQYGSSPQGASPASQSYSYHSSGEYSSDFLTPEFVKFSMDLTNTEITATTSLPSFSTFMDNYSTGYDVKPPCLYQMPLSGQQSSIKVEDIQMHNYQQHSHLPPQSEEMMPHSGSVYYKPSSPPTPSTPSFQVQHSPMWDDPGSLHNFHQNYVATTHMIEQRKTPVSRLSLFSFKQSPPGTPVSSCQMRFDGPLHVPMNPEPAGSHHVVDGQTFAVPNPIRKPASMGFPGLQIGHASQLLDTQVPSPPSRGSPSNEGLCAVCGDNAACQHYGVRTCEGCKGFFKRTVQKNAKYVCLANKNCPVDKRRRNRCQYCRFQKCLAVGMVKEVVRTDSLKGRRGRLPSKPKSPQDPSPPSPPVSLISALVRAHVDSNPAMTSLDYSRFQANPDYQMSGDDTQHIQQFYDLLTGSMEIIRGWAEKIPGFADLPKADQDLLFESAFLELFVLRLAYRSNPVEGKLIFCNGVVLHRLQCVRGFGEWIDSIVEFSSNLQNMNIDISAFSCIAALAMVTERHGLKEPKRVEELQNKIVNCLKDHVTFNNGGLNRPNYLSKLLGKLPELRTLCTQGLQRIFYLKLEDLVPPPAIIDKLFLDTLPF

Structure (SMILES): O=C(c1ccccc1)c1cn2cc(-c3ccccc3)ccc2n1 [Compound 6, Phenyl(6-phenylimidazo[1,2-a]pyridin-2-yl)methanone]
- EC50 (murine Nurr1 receptor): 0.02 nM

Structure (SMILES): Br.CC(C)(O)c1ccc2nc(C(=O)c3ccccc3)cn2c1 [Compound 3, [6-(1-Hydroxy-1-methylethyl)imidazo[1,2-a]pyridin-2-yl] (phenyl)-methanone hydrobromide (1:1)]
- affinity (classified by maximum binding level and kinetic parameters of binding to the immobilized protein) (human NOT receptor): moderate affinity
- EC50 (murine Nurr1 receptor): 0.2 nM

Structure (SMILES): Cc1ccc2nc(C(=O)c3ccccc3)cn2c1.Cl [Compound 1, (6-Methylimidazo[1,2-a]pyridin-2-yl)(phenyl)methanone hydrochloride (1:1)]
- affinity (classified by maximum binding level and kinetic parameters of binding to the immobilized protein) (human NOT receptor): moderate affinity
- EC50 (murine Nurr1 receptor): 0.3 nM
